# Columns and labels:
# [1] = tested on: dendritic cells derived from human monocytes; assay: Stimulation of human cells in vitro: maturation markers by flow cytometry; format: cell-based; conditions: 2 days culture; DPPC liposomes, R-848 2.96 μg/ml, ER804057 0.1 μg/ml; mean of 4 donors
# Protocol: (§1) The capacity of the compositions according to the invention to induce the maturation of dendritic cells derived from human monocytes in vitro is evaluated for 4 independent donors. The monocytes are obtained from peripheral blood mononuclear cells and are cultured for 5-6 days in the presence of IL4 and of GM-CSF. […] There are then carried out a phenotype analysis by flow cytometry, making it possible to measure the expression of the maturation markers CD25, CD80 and CD83, and an ELISA measurement of the cytokines (TNF-α, IL6 and IL12p70) secreted by these cells. The results indicated in the tables below represent the mean values calculated for the 4 donors: […]
# mice = conditions: ovalbumin as antigen; cited from earlier work
# Toll-like 8 receptor = biological target: T1, Toll-like 8 receptor (Homo sapiens, UniProt Q9NR97); conditions: cited from earlier work
# T1 sequence (Q9NR97 27-1041): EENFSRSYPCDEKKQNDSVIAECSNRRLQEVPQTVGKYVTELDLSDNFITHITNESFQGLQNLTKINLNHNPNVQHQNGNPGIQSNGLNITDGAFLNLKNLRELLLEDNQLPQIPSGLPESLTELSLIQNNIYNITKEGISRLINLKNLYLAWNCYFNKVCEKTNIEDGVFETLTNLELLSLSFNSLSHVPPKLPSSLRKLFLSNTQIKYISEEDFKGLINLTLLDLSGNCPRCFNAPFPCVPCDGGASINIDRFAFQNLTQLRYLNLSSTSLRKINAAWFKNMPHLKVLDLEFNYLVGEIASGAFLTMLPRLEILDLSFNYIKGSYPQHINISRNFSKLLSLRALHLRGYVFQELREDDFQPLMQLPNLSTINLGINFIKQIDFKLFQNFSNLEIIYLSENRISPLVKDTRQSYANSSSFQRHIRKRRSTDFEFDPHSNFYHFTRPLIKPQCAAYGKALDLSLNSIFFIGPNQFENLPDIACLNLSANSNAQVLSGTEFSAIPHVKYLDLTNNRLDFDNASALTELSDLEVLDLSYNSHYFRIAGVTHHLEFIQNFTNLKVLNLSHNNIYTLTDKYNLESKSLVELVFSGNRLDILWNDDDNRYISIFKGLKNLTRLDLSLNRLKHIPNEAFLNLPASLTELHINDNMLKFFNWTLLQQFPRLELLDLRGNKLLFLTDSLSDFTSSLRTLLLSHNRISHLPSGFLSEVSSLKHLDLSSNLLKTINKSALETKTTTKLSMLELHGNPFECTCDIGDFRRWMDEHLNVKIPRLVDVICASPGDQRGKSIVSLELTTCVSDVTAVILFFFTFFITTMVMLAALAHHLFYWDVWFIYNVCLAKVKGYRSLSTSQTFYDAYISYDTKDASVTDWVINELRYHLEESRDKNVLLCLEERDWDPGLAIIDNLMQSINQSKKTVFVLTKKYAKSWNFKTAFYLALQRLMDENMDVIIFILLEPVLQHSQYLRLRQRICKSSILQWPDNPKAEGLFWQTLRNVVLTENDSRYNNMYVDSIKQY
# BALB/c mice = assay: Immunization test on mice: specific IgG1 and IgG2a by ELISA; format: in vivo; conditions: Tat vaccine compositions; level and dispersion of the results between mice
# Protocol: 5. Immunization Test on Mice.
# There are available 4 groups of 6 female BALB/c mice 8 weeks old to which one of the compositions prepared in example 4 is injected subcutaneously at the rate of a dose of 200 μl per mouse; the injections are performed on D0 and at D21.
# Blood samples are collected at the retro-orbital sinus at D14 for assessing the primary response and at D32 for the secondary response. The determination of the level of specific IgG1 and IgG2a is carried out by virtue of the standard ELISA tests.
# The results obtained as regards the humoral responses are summarized in the table below and in FIGS. 1 to 4, where the IgG levels are expressed as arbitrary ELISA units (log10).
# For each group of mice, the value indicated in the table is the mean geometric titer of the values obtained for each of the mice.
# Toll-like 7 receptor = biological target: T2, Toll-like 7 receptor (Homo sapiens, UniProt Q9NYK1); conditions: cited from earlier work
# T2 sequence (Q9NYK1 27-1049): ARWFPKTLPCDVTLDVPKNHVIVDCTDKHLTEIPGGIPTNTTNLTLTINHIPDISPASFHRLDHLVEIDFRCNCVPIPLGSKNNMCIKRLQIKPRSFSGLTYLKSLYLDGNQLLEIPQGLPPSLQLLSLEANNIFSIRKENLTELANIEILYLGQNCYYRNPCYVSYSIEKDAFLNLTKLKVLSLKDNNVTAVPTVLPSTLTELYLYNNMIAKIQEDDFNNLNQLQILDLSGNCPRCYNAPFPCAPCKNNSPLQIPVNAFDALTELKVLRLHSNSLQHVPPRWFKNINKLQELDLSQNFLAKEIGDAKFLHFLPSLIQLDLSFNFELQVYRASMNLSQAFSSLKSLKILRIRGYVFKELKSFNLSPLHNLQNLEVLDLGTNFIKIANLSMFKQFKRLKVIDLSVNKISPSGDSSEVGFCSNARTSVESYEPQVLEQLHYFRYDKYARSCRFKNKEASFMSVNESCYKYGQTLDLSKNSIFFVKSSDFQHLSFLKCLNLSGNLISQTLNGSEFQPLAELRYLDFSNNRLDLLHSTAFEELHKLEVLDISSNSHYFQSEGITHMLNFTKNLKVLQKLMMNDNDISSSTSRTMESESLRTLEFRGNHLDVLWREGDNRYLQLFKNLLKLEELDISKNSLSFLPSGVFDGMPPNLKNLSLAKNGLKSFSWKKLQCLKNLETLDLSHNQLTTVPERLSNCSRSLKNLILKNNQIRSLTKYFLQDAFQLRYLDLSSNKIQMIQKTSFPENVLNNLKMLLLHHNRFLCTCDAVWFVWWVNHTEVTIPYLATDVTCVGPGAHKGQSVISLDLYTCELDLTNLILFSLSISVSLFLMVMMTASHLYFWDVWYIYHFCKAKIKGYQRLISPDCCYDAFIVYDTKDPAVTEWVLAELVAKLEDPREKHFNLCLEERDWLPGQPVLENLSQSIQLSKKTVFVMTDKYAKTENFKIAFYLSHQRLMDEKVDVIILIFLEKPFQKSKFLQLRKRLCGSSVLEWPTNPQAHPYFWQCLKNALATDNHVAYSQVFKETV
# [2] = tested on: dendritic cells derived from human monocytes; assay: Stimulation of human cells in vitro: ELISA of secreted cytokines; format: cell-based; conditions: 2 days culture; DPPC liposomes, R-848 2.96 μg/ml, ER804057 0.1 μg/ml; mean of 4 donors
# Protocol: as §1
SMILES,Percentage of cells expressing the markers CD25 [1] [%],Percentage of cells expressing the markers CD80 [1] [%],Percentage of cells expressing the markers CD83 [1] [%],adjuvant type (mice),activation of cells via the Toll-like 8 receptor (Toll-like 8 receptor),"IgG2a response obtained after the injection of the booster, individual mice (FIGS. 1 to 4) (BALB/c mice)",activation of cells via the Toll-like 7 receptor (Toll-like 7 receptor),Quantity of cytokines IL 6 [2] [pg/mL],Quantity of cytokines IL12p70 [2] [pg/mL],Quantity of cytokines TNF-α [2] [pg/mL]
"CCOCc1nc2c(N)nc3ccccc3c2n1CC(C)(C)O [R-848, 4-amino-2-ethoxymethyl-α,α-dimethyl-1-H-imidazo[4,5c]quinoline-1-ethanol]",25,34,19,adjuvant of the TH1 type,activates the cells,on average satisfactory,activates the cells,8263,288,1727
"CCCCCCCCCCCC(=O)CC(=O)N[C@H](COCC[C@@H](CCCCCCC)OC(=O)CCCCCCCCCCC)COP(=O)(O)OCCNC(=O)NCCOP(=O)(O)OC[C@@H](COCC[C@@H](CCCCCCC)OC(=O)CCCCCCCCCCC)NC(=O)CC(=O)CCCCCCCCCCC [ER804057, (1R,6R,22R,27R)-1,27-diheptyl-1,27-bisdodecanoyl-9,19-dihydroxy-9,19-dioxido-14-oxo-6,22-bis[(1,3-dioxotetradecyl)amino]-4,8,10,18,20,24-hexaoxa-13,15-diaza-9,19-diphosphoheptacosan]",35,46,15,,,on average satisfactory,,8349,22,393
